Patent US11332470B2, “CXCR4 inhibitors and uses thereof” (X4 Pharmaceuticals, Inc., priority 2016, dated 2022)

Columns and labels:
[1] = molecular target: T1, CXCR4 (Jurkat cells expressing CXCR4) (Homo sapiens, UniProt P61073); test: Chemokine (CXCL12-AF647) binding inhibition assay; settings: CXCL12-AF647 25 ng/mL, read-out: IC50 CXCL-12 binding Jurkat
T1 construct: Jurkat cells expressing CXCR4; endogenous in cells; host or cells: Jurkat
Experimental: Chemokine (CXCL12-AF647) Binding Inhibition Assay
Jurkat cells expressing CXCR4 were washed once with assay buffer (Hanks' balanced salt solution with 20 mM HEPES buffer and 0.2% bovine serum albumin, pH 7.4) and then incubated for 15 min at room temperature with the test compounds diluted in assay buffer at dose-dependent concentrations. Subsequently, CXCL12-AF647 (25 ng/mL) was added to the compound-incubated cells. The cells were incubated for 30 min at room temperature. Thereafter, the cells were washed twice in assay buffer, fixed in 1% paraformaldehyde in PBS, and analyzed on the FL4 channel of a FACSCalibur flow cytometer equipped with a 635-nm red diode laser (Becton Dickinson, San Jose, Calif., USA).
The percentages of inhibition of CXCL12-AF647 binding were calculated according to the formula: [1−((MFI−MFINC)/(MFIPC−MFINC))]×100 where MFI is the mean fluorescence intensity of the cells incubated with CXCL12-AF647 in the presence of the inhibitor, MFINC is the mean fluorescence intensity measured in the negative control (i.e., autofluorescence of unlabeled cells), and MFIPC is the mean fluorescence intensity of the positive control (i.e., cells exposed to CXCL12-AF647 alone).

[2] = molecular target: T2, CXCR4 (U87.CXCR4 cells) (Homo sapiens, UniProt P61073); test: Intracellular CXCL-12-induced calcium mobilization assay (FLIPR); type: cell-based; settings: CXCL-12 25-50 ng/mL, read-out: IC50 CXCL-12 Ca2+ flux U87.CXCR4+
T2 construct: expressed in transfected cells; host or cells: U87 (U87.CXCR4)
Experimental: Intracellular CXCL-12-Induced Calcium Mobilization Assay
Intracellular calcium mobilization induced by chemokines or chemokine-derived peptides were evaluated using a calcium responsive fluorescent probe and a FLIPR system. The CXCR-4 transfected U87 cell line (U87.CXCR4) cells were seeded in gelatine-coated black-wall 96-well plates at 20,000 cells per well and incubated for 12 hours. Cells were then loaded with the fluorescent calcium probe Fluo-2 acetoxymethyl at 4 μM final concentration in assay buffer (Hanks' balanced salt solution with 20 mM HEPES buffer and 0.2% bovine serum albumin, pH 7.4) for 45 min at 37° C. The intracellular calcium mobilization induced by the CXCL-12 (25-50 ng/mL) was then measured at 37° C. by monitoring the fluorescence as a function of time in all the wells simultaneously using a fluorometric imaging plate reader (FLIPR Tetra, Molecular Devices).

T2 sequence (P61073 whole entry): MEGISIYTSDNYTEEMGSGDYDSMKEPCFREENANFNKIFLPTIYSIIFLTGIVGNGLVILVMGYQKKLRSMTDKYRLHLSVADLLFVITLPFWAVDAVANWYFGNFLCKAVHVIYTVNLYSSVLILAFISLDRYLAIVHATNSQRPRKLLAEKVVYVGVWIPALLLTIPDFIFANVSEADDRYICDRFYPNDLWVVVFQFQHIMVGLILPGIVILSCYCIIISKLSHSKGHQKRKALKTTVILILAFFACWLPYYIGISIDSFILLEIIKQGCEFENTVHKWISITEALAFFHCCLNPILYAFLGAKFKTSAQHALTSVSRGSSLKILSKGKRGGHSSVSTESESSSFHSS
T1 sequence (P61073 whole entry): as above

IC50 [1]	IC50 [2]	SMILES
≥ 1000 nM	≥ 1000 nM	CN1CCN(c2cccc3nc(C4CCCCN4Cc4ccccc4-n4cccn4)[nH]c23)CC1 (centres unmarked) [Compound I-3, 2-(1-(2-(1H-pyrazol-1-yl)benzyl)piperidin-2-yl)-7-(4-methylpiperazin-1-yl)-1H-benzo[d]imidazole]
≥ 1000 nM	≥ 1000 nM	CN1CCN(c2cccc3[nH]c(C4CCCN4Cc4ccccc4-n4cccn4)nc23)CC1 (centres unmarked) [Compound I-5, 2-(1-(2-(1H-pyrazol-1-yl)benzyl)pyrrolidin-2-yl)-7-(4-methylpiperazin-1-yl)-1H-benzo[d]imidazole]
100 to 1000 nM	≥ 1000 nM	Cc1cccnc1C1CCCN1Cc1ncccc1-n1cccn1 (centres unmarked) [Compound I-66]
≥ 1000 nM	≥ 1000 nM	c1ccc(C2CCCN2Cc2ncccc2-n2cccn2)nc1 (centres unmarked) [Compound I-67]
100 to 1000 nM	≥ 1000 nM	Cc1cccnc1C1CCCN1Cc1nc2cccc(N3CCN(C)CC3)c2o1 (centres unmarked) [Compound I-71]
≥ 1000 nM	≥ 1000 nM	Cc1cccnc1C1CCCN1Cc1nc2c(N3CCN(C)CC3)cccc2o1 (centres unmarked) [Compound I-72]
100 to 1000 nM	≥ 1000 nM	Cc1cccnc1C1CCCN1Cc1cc2c(N3CCN(C)CC3)cccc2o1 (centres unmarked) [Compound I-73]
≥ 1000 nM	≥ 1000 nM	Cc1cccnc1C1CCCN1C(=O)c1cn2c(N3CCN(C)CC3)cccc2n1 (centres unmarked) [Compound I-74]
0.01 to 100 nM	≥ 1000 nM	Cc1cccnc1CN1CCCC1c1nc2ccccc2n1C1CCN(C)CC1 (centres unmarked) [Compound I-77]
0.01 to 100 nM	≥ 1000 nM	CN1CCC(n2c(C3CCCN3Cc3ccccn3)nc3ccccc32)CC1 (centres unmarked) [Compound I-78]
100 to 1000 nM	≥ 1000 nM	Cc1cccnc1C1CCCN1Cc1nc2ccccn2c1CCC#N (centres unmarked) [Compound I-81]
100 to 1000 nM	≥ 1000 nM	Cc1cccnc1C1CCCN1Cc1cccc(C(=O)Nc2ccncc2)n1 (centres unmarked) [Compound I-90]
100 to 1000 nM	≥ 1000 nM	OCc1c(CN2CCCC2c2ccccn2)nc2ccccn12 (centres unmarked) [Compound I-93]
≥ 1000 nM	≥ 1000 nM	c1ccc(C2CCCN2Cc2nc3ccccn3c2COc2cccnc2)nc1 (centres unmarked) [Compound I-95]
0.01 to 100 nM	0.01 to 100 nM	Cc1cccnc1CN1CCCC1c1nc2ccccn2c1N1CCN(C)CC1 (centres unmarked) [Compound I-100]
≥ 1000 nM	≥ 1000 nM	Cc1cccnc1C1CCCN1Cc1nccn1-c1ccccn1 (centres unmarked) [Compound I-113]
100 to 1000 nM	≥ 1000 nM	Cc1cccnc1C1CCCN1Cc1nccn1-c1cccnc1 (centres unmarked) [Compound I-114]
100 to 1000 nM	≥ 1000 nM	Cc1cccnc1C1CCCN1Cc1nccn1-c1ccncc1 (centres unmarked) [Compound I-115]
≥ 1000 nM	≥ 1000 nM	Cc1cccnc1C1CCCN1Cc1cccc(CC2CCN(C)CC2)n1 (centres unmarked) [Compound I-116]
100 to 1000 nM	≥ 1000 nM	Cc1cccnc1C1CCCN1Cc1nccn1C(=O)N1CCN(C)CC1 (centres unmarked) [Compound I-125]
≥ 1000 nM	≥ 1000 nM	Cc1cccnc1CN1CCCC1c1cn2c(N3CCN(CC(F)(F)F)CC3)cccc2n1 (centres unmarked) [Compound I-129]
100 to 1000 nM	≥ 1000 nM	c1ccc(C2CCCN2Cc2nc3ccccn3c2N2CCN(c3ccncc3)CC2)nc1 (centres unmarked) [Compound I-133]
